From patent publication US20140275010A1, “QUATERNARY SALTS” (priority 2013, published 2014)

What was measured:
[1] = system: Ad2 pre-mRNA splicing in HeLa nuclear extract; assay: In vitro splicing (biochemical) assay; settings: in vitro splicing of Ad2 pre-mRNA, 30° C., 90 min, read-out: Biochem IC50
Description: In Vitro Splicing (Biochemical) Assay Protocol
Biotin-labeled pre-mRNA of an adenovirus type 2 construct with a deletion of intervening sequence (Ad2)^1 was prepared by in vitro transcription. The Ad2 construct containing Exon 1 (41 nt), Intron (231 nt), and Exon 2 (72 nt) was generated by gene synthesis and cloned into the EcoRI and XbaI sites of pGEM-3Z (Promega) by Genewiz. The plasmid was then linearized by XbaI digestion and purified. In vitro transcription and purification of transcribed pre-mRNA were performed using the MEGAScript T7 kit (Invitrogen) and MEGAclear kit (Invitrogen), respectively, following the manufacturer instructions. The ratio of biotin-16-UTP (Roche) to cold UTP was 1:13 to incorporate approximately two biotin molecules per spliced Ad2 mRNA.
In vitro splicing assay was performed at 30° C. in 25 μL reaction mixtures containing 95 μg HeLa nuclear extract (Promega), 47 nM Ad2 pre-mRNA, 25 U RNasin RNase inhibitor (Promega), 1×SP buffer (0.5 mM ATP, 20 mM creatine phosphate, 1.6 mM MgCl2), and compounds in DMSO (with 1% final concentration of DMSO). After 90 min of incubation, the reaction was stopped by addition of 18 μL of 5M NaCl, and the mixtures were incubated with 10 μL of M-280 streptavidin-coated magnetic beads (Invitrogen) for 30 min at room temperature to capture Ad2 pre- and spliced mRNA. The beads were washed twice with 100 uL buffer containing 10 mM Tris pH=7.5, 1 mM EDTA and 2M NaCl, and then incubated in RNA gel loading buffer containing 95% formamide at 70° C. for 10 min to elute the RNAs. Ad2 RNAs were resolved by 6% TBE-UREA gel, transferred to a nylon membrane, UV cross-linked, and probed with an IR-dye labeled streptavidin (LiCor) using LiCor detection. The amount of spliced RNA was quantified by measuring the band fluorescent intensity using LiCor software.

[2] = system: Panc 05.04 cells: Pancreatic cancer cells (Q699H and K700E mutations in SF3B1); assay: Cell viability assay (CellTiter-Glo), Panc 05.04 cells; format: cell-based; settings: 72 hr; for Gl50 Panc 05.04: Panc 05.04 pancreatic cancer cells, SF3B1 Q699H and K700E, CellTiter-Glo; for Emax Panc 05.04: highest growth inhibition achieved in tested dose range
Description: (§1) Cells are seeded in 96-well plate with 2000 cells/100 uL/well and incubated overnight. Spent media was removed and fresh media containing compound (100 uL/well) with appropriate 9 concentrations are added. Each compound was treated in duplicate or triplicate manner at each concentration. DMSO concentration was adjusted to be 0.1%. Another plate was dedicated as Tz plate which was added 0.1% DMSO in media (100 uL/well) followed by CellTiter-Glo® (Promega corp., 50 uL/well) for ATP measurement as a surrogate of cell viability. Values from this plate are used as Tz. Compound treated plates are incubated for 72 hr at 37 C. Then, CellTiter-Glo® (50 uL/well) was added and ATP level was measured. Values from compound treated wells are used as Ti and DMSO treated wells are used as C.
(§2) Percentage growth inhibition was calculated as:
(§3) [(Ti−Tz)/(C−Tz)]×100 for concentrations for which Ti>/=Tz
(§4) [(Ti−Tz)/Tz]×100 for concentrations for which Ti<Tz.
(§5) *[time zero, (Tz), control growth (C), and test growth in the presence of drug with dose (Ti)] Growth inhibition of 50% (GI50) was calculated from [(Ti−Tz)/(C−Tz)]×100=50, which was the drug concentration resulting in a 50% reduction in the net protein increase in control cells during the drug incubation. The LC50 (concentration of drug resulting in a 50% reduction in the measured value at the end of the drug treatment as compared to that at the beginning) indicating a net loss of cells following treatment was calculated from [(Ti−Tz)/Tz]×100=−50.
(§6) Emax was defined as highest growth inhibition that particular compound achieved in tested dose range.

[3] = system: WiDr cells: Colon cancer cells (wildtype SF3B1); assay: Cell viability assay (CellTiter-Glo), WiDr cells; format: cell-based; settings: 72 hr
Description: as §1, §2, §3, §4, §5, §6

[4] = system: WiDr-R cells: Colon cancer cells (chemically-induced SF3B1 mutant which is resistant to E7107 (R1074H mutation)); assay: Cell viability assay (CellTiter-Glo), WiDr-R cells; format: cell-based; settings: 72 hr
Description: as §1, §2, §3, §4, §5, §6

[5] = system: reporter gene controlled by human VEGF promoter; settings: read-out: IC50, inhibition of VEGF-promoted gene expression; cited from earlier work
U251 human glioma cells = U251 human glioma cells in vitro; read-out: IC50, inhibition of glioma cell proliferation; cited from earlier work

Compound | IC50 [1] [µM] | Gl50 Panc 05.04 [2] [nM] | Emax Panc 05.04 [2] [%] | Gl50 WiDr [3] [nM] | Gl50 WiDr-R [4] [nM] | IC50 [5] [µM] | IC50 (U251 human glioma cells) [µM]
CC[C@H](O)[C@@H](C)[C@H]1O[C@@H]1C[C@H](C)/C=C/C=C(\C)[C@H]1OC(=O)C[C@H](O)CC[C@@](C)(O)[C@@H](OC(=O)N2CC[N+](C)(C)CC2)/C=C/[C@@H]1C.[I-] [Cpd. 2] | 0.05 | 17.0 | −69 | 8.9 | >1000 | – | –
CC[C@H](O)[C@@H](C)[C@H]1O[C@@H]1C[C@H](C)/C=C/C=C(\C)[C@H]1OC(=O)C[C@H](O)CC[C@@](C)(O)[C@@H](OC(=O)N2CC[N+](C)(C(C)C)CC2)/C=C/[C@@H]1C.[I-] [Cpd. 3] | 0.06 | 16.2 | −66 | 2.8 | >100 | – | –
CC[C@H](O)[C@@H](C)[C@H]1O[C@@H]1C[C@@](C)(O)/C=C/C=C(\C)[C@H]1OC(=O)C[C@H](O)CC[C@@](C)(O)[C@@H](OC(=O)N2CC[N+](C)(C3CCCCCC3)CC2)/C=C/[C@@H]1C.[I-] [Cpd. 17] | < 0.1 | 607.8 | −47 | 64.5 | >1000 | – | –
CCC(O)C(C)C1OC1CC(C)/C=C/C=C(\C)C1OC(=O)CC(O)CCC(C)(O)C(OC(C)=O)/C=C/C1C (centres unmarked) [Pladienolide B] | – | – | – | – | – | 0.0018 | 0.0035
